The values that follow come from patent publication US20250027086A1, “COMPOSITIONS AND METHODS FOR TREATMENT OF CANCERS USING MODIFIED siRNA-GEM AGENTS” (Sirnaomics, Inc., priority 2022, published 2025).

One data set has as its system MiaPaCa-2 cells. Briefly: Cell viability (CellTiter-Glo) in MiaPaCa-2 pancreatic cancer cells after transfection. Type of data set: cell-based, human. Particulars: Homo sapiens, MIA PaCa-2. Here is the method:
(§1) MIA PaCa-2, […], LS180, HT1376, HT29, H358, H1299, OVCAR-3, HTB-9 and Panc 10.05 cells were obtained from ATCC (Rockville, MD). MiaPaCa cells were cultured in DMEM medium supplemented with 10% FBS. H358, H1299, HTB-9, N87 and Panc 10.05 cells were cultured in DMEM/10% FBS; LS180 and HT1376 in EMEM/10% FBS; HT29 cells in McCoy5A/10% FBS; OVCAR-3 cells were incubated in RPMI/20% FBS. All cells were maintained at 37 degrees C. in an atmosphere containing 5% CO^2.
(§2) The day before transfection, cells were seeded in a 384-well plate at an optimal density of between 300 and 800 cells/well. The next day, ten 3-fold serial dilutions of single, modified-backbone siRNAs or PGN6/PGN7 siRNA and Gemcitabine (GEM) mixed with siRNAs: Wee1 #7, KRAS #1, MCL1 #3 or DM2-P47 siRNAs at 1:1 ratio were prepared and combined with diluted Lipofectamine RNAiMAX (Life Technologies, Carlsbad, CA). Within 20 minutes, 10 μl of the transfection mixtures were added to the cells in a 40 μL medium. The final concentrations of siRNAs or Gemcitabine in the wells ranged from 100 nM to 0.002 nM.
(§3) Ninety-six hours following the addition of GEM or transfection mixtures, the number of viable cells was determined with CellTiter-Glo®-2.0 reagent (Promega, Madison, WI) by measuring luminescent signal using a Cytation 5 plate reader (BioTek Inc, Winooski, VT). The treatment group (n=4) mean (±SD) was compared to those of non-treated controls and were reported as relative cell viability.
On the technique in general: Cellular ATP, detected with luciferase, serves as a proxy for viable cell number.

In a further data set the test system is MDA-MB231 cells. The experiment in a line: Cell viability in triple negative breast cancer cell line MDA-MB231. Type of data set: cell-based. The following applies: MDA-MB231, 400 cells per well; FIG. 13(a). Here is the method:
as §1
(§4) The day before transfection, cells were seeded in a 384-well plate at an optimal density of between 300 and 800 cells/well. […]
(§5) Ninety-six hours following the addition of GEM or transfection mixtures, the number of viable cells was determined with CellTiter-Glo®-2.0 reagent (Promega, Madison, WI) by measuring luminescent signal using a Cytation 5 plate reader (BioTek Inc, Winooski, VT). […]
(§6) Using the same or similar experimental condition as are described above in Example 1, the effects of (i) PGN7 (SEQ. ID No. 9-10) plus a non-signaling oligonucleotide (“NS”), (ii) BCLxL #5 (SEQ. ID No. 14)+NS, and (iii) PGN7 and BCLxL #5 in combination were evaluated and are shown in triple negative breast cancer (MDA-MB231) and ovarian cancer (OVCAR3) cell lines in FIGS. 13 (a)-(b). […]

A further data set deals with OVCAR3 cells. Briefly: Cell viability in ovarian cancer cell line OVCAR3. In kind it is cell-based. Particulars: OVCAR3, 800 cells per well; FIG. 13(b). Here is the method:
as §1, §4, §5, §6

Data set [1] has as its system MIA PaCa-2 human pancreatic cancer xenograft. The experiment in a line: PGN6 efficacy on pancreatic tumor growth in NOD/SCID mice inoculated with MIA PaCa-2. In kind it is in vivo, mouse. From the text: Twenty, 6- to 9-week old NOD/SCID female mice were purchased from the Jackson Laboratory. Each mouse was tagged for identification at the beginning of the study. Up to 5 mice were housed in a single cage with standard corn cob bedding for a minimum of three days for stabilization; bedding was changed every two weeks. Fluorescent lighting was provided on a 12-hour cycle; temperature was maintained between 68-79 degrees F. at 30-70 percent humidity. Mice were fed an 18 percent soy irradiated rodent feed (Envigo) and autoclaved acidified water (pH 2.5-3) were available to all animals ad libitum. The mice were observed daily for clinical signs of disease.
Tumor cell preparation: Cryogenic vials containing tumor cells were thawed and cultured according to the manufacturer's protocol. On the day of inoculation, cells were washed in a serum-free media, counted, and resuspended in cold serum-free media at a concentration of 3 million cells per 100 microliters. […]
Tumor measurement: Mice were monitored weekly for palpable tumors or changes in appearance or behavior. Once tumors were palpable they were measured weekly using calipers. Tumor volume was calculated using the equation: […]
Once tumors were on average between 150-250 mm^3 in volume, tumors and body weights were measured at least twice weekly for the duration of the study. […]

In data set [2] the test system is pancreatic, lung and colon cancer cell lines. The experiment in a line: Cell viability in pancreatic, lung and colon cancer cell lines. In kind it is cell-based. Here is the method: as §1, §2, §3
Using the same experimental conditions as are described above in Example 1, the efficacy on cell viability was evaluated for PGN6 (SEQ. ID Nos. 7-8), with and without lipofentamine (“lipo”) in three types of cancer cell lines. FIG. 3 (a)-(c) show the effects of PGN6, with and without lipo on cell viability at increasing siRNA levels in pancreatic cancer cell lines. FIG. 4 (a)-(b) similarly show the effects of these variants on cell viability in lung cancer cell lines; FIG. 5 (a)-(b) show the effects of these variants on cell viability in colon cancer cell lines. All data are shown as mean±SD. […]
Using the same experimental conditions as are described above in Example 1, the efficacy of STD1 (SEQ. ID Nos. 1-2), PGN6 (SEQ. ID Nos. 7-8) and PGN7 (SEQ. ID Nos. 9-10) were evaluated in three types of cancer cell lines. […]
Using the same experimental conditions as are described above in Example 1, the efficacy of PGN7 (SEQ. ID No. 9-10) alone and its combination with WEE1 #7 (SEQ. ID No. 13) was evaluated in three types of cancer cell lines. […]
Using the same experimental conditions as are described above in Example 1, the efficacy of PGN7 (SEQ. ID No. 9-10) and the combination of BCLxL #5 (SEQ. ID No. 14) and PGN7 was evaluated in three types of cancer cell lines. […]

Data set [3] concerns HT1376, HTB-9, N87 and OVCAR-3 cell lines. The experiment in a line: Cell viability in urinary bladder, gastric and ovarian cancer cell lines. In kind it is cell-based. The following applies: HT1376, HTB-9, N87, OVCAR-3; FIGS. 9-10. Here is the method: as §1, §4, §5
Using the same or similar experimental condition as are described above in Example 1, the effects of PGN7 (SEQ. ID No. 9-10), Wee1 (SEQ. ID No. 13), BCLxL #5 (SEQ. ID No. 14) or the PGN7+Wee1, or PGN+BCLxL combinations were evaluated and are shown in HT1376 (400 cells/well) and HTB-9 (800 cells/well) urinary bladder cancer cell lines, N87 (600 cells/well) gastric cancer cell line, and OVCAR-3 (800 cells/well) ovarian cancer line in FIGS. 11 (a)-(d). […]

“Also recorded” adds a separate entry of the source. Like-named read-outs stand apart in the source and are kept apart here.

Regarding `Nc1ccn([C@@H]2O[C@H](CO)[C@@H](O)C2(F)F)c(=O)n1` [Gemcitabine, 2′, 2′-difluoro 2′-deoxycytidine], the IC50 in the data set on MiaPaCa-2 cells (in combination with lipofectamine, 96 h, n=4 (FIG. 2), read-out: IC50, MiaPaCa-2 cell viability) was 8 nM; in the data set with MiaPaCa-2 cells (with lipofectamine (GEM alone for gemcitabine), FIG. 2, read-out: ID50, MiaPaCa cells), 8 nM.
In the case of “BCLxL #5: siRNA sequence used to target BCLxL, SEQ. ID No. 14 (no GEM) (GCGTGGAAAGCGTAGACAAGGAGAT; listed as DNA, chemistry not given here)”, the IC50 with MDA-MB231 cells amounted to 0.5 nM; in the data set with OVCAR3 cells, 2.7 nM.
Take “PGN6: modified siRNA-GEM molecule (SEQ. ID No. 7-8): sense 5′-AAGAAAgAgau [GEM]UGUAU[GEM]AAU-3′; antisense 5′-AuUGAuACAGAUCuCuuucuu[GEM][GEM]dTdT-3′ (sense AAGAAAGAGATCTGTATCAAT; antisense ATTGATACAGATCTCTTTCTTCCTT; GEM modifications; dTdT overhang; modified_base 1 OTHER; 2'-O-methyl modified nucleotide; modified_base 2 OTHER; modified_base 3 OTHER; modified_base 4 OTHER; modified_base 5 OTHER; modified_base 6 OTHER; modified_base 7 OTHER; 2'-fluoro modified nucleotide; modified_b; 2'-O-me)”: in data set [1] (2 mg/kg IV twice weekly for three weeks, with DODAB siRNA in HKP(+H), vs control, n=10, FIG. 12(a)), the “pancreatic tumor volume / tumor growth” value is “attenuate or prevent tumor growth; also recorded: tumors did not grow; also recorded: attenuating the growth of pancreatic tumors”. Also, in data set [1] (2 mg/kg twice weekly, 20 days treatment period, FIG. 12(b)), the body weight entry was “body weight remained constant”. The “effectiveness with lipofectamine versus without lipofectamine” value in data set [2] (lung (FIG. 4) and colon (FIG. 5) cancer cell lines) is “apparently more effective”; in data set [2] (pancreatic lines MiaPaCa (G12C), BXPC3 (WT), Panc10.05, FIG. 3), “more effective”. In addition, the “reduction of cell viability” value in data set [2] (single siRNA against non-silencing control, pancreatic, lung, colon, FIG. 6) is on record as “effective in reducing cell viability”.
With “WEE1 #7: siRNA sequence used to target WEE1, SEQ. ID No. 13 (no GEM) (CGCTCTGTCAGCCTTACTA; listed as DNA, chemistry not given here)”, the “efficacy on cell viability” value in data set [3] is recorded as “significant efficacy”.
